We go through twelve molecules from patent US11773057B2, “Naphthalenesulfonamide compound, preparation method, and application” (CHINA PHARMACEUTICAL UNIVERSITY, priority 2019, dated 2023).

For one data set, the system named is HepG2-ARE-C8 cells. Put plainly: ARE luciferase reporter gene experiment. The data set is classed as cell-based. Particulars: compound acts 12 h, ratio to DMSO group, FIG. 1, in words. As for the experimental part: 2. ARE Luciferase Reporter Gene Experiment
HepG2-ARE-C8 cells in log growth phase (these cells are given by A. N. Tony Kong of Rutgers University) are digested with 0.1% pancreatin to prepare a cell suspension, the cell suspension is added to a 96-well microtiter plate at a cell concentration of 4×10^5/mL, added 100 μL per well, and after overnight culture, a DMSO group serves as a negative control, t-BHQ serves as a positive control, and a cell culture lysis reagent serves as a background value. The compound is allowed to act for 12 h, three replicate wells were provided, the growth medium is carefully pipetted from the cells to be examined, 100 μL of pre-cooled. […] 100 μL luciferase detection reagent is added to each well and read immediately. […] Typical delay time is 2 seconds, typical reading time is 10 seconds, and the last measured data is divided from the DMSO group. […]
By a fluorescence polarization based Keap1-Nrf2 PPI competitive inhibition experiment we have shown that on the target level, some compounds (compound numbers see FIG. 1) are able to efficiently compete for binding to Keap1 and thereby activating Nrf2. […] When luciferin is present in a substrate, the […], and the activation capability of a compound on Nrf2 is indirectly reflected by means of fluorescence intensity. […]
For orientation: In a reporter assay the amount or activity of a reporter protein is the signal.

For data set [1], the target named is T1, Keap1-Nrf2 PPI (Keap1 kelch domain protein, FITC labeled Nrf2 9 peptide) (Homo sapiens, UniProt Q14145).
T1 construct: 10 μL 12 nm Keap1 kelch domain protein
Put plainly: Fluorescence polarization based Keap1-Nrf2 PPI competitive inhibition experiment (FP experiment). The data set is classed as binding. The following applies: for IC50: FP experiment. As for the experimental part: 1. Keap1-Nrf2 PPI Competitive Inhibition Test Based on Fluorescence Polarization (FP Experiment)
The 384-well blackboard model 3676 produced by Corning is used in FP experiment, with a total volume of reaction of 40 μL. 20 μL compound, 10 μL 4 nm FITC labeled Nrf2 9 peptide, 10 μL 12 nm Keap1 kelch domain protein are added to the well in order. 20 μL 200 nM DDO-1002, 10 μL 4 nM of the FITC-labeled Nrf2 9 peptide, 10 μL 12 nM of Keap1 Ketch domain protein are used in the positive control; 20 μL HEPES buffer, 10 μL 4 nM of the FITC-labeled Nrf2 9 peptide, 10 μL, 12 nM of Keap1 Kelch domain protein are used in the negative control; 10 μL 4 nM of the FITC-labeled Nrf2 9 peptide, 30 μL of HEPES buffer are used in the blank control. After addition is complete, they are incubated for 30 min at room temperature. The detection instrument is a SpectraMax Multi-Mode Microplate Reader (Molecular Devices), the excitation light wavelength selected is 485 nm, the emission light wavelength is 545 nm, and the fluorescence intensity in the horizontal and vertical directions is detected to calculate the polarization value. The inhibition rate is calculated as: inhibition %=[…]/(Pmax−Pmin) wherein Pobs is the polarization value of the compound well, Pmax is the polarization value of the negative control well, and Pmin is the polarization value of the blank well. Data treatment is performed using GraphPad Prism, and IC50 of the compound is calculated using a concentration-inhibition rate curve. The IC50 values for each compound are as previously described.

Where [2] appears, read: general formula V / VI compounds.
Setting [3] is: general formula I / II compounds.
The mark [4] stands for this setting: general formula III compounds, unit inferred.

T1 sequence (Q14145 321-609 limits assumed): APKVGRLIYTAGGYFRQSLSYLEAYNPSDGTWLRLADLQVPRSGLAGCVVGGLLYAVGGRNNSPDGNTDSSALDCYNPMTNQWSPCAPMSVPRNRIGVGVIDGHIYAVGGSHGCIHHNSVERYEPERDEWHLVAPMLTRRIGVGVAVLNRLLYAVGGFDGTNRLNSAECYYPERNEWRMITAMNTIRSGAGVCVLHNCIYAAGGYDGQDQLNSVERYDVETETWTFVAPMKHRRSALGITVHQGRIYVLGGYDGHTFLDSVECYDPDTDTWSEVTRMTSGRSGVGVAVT

Regarding `C#CCN(c1ccc(NS(=O)(=O)c2c(C)cc(OC)cc2C)c2ccccc12)[C@@H](C)CC(=O)O` [DDO-1220], the “ARE luciferase reporter gene activity (fold induction), cell activity” value with HepG2-ARE-C8 cells was “has the optimal cell activity”. The molecule further yielded an IC50 in data set [1] (setting [2]) of 13 nM.
In data set [1] (setting [3]), `COc1ccc(S(=O)(=O)Nc2ccc(N(Cc3cccc(Cl)c3)[C@@H](C)CC(=O)O)c3ccccc23)cc1` [DDO-1172, (S)-3-((3-chlorobenzyl) (4-((4-methoxyphenyl)sulfonamido)naphthalen-1-yl)amino) butanoic acid] registered an IC50 of 3780 nM.
In turn, `C#CCN(c1ccc(N(CC(=O)O)S(=O)(=O)c2c(C)cc(C)cc2C)c2ccccc12)[C@@H](C)CC(=O)O` [DDO-1207, (S)-3-((4-((N-(Carboxymethyl)-2,4,6-trimethylphenyl)sulfonamidyl)naphthalen-1-yl)(prop-2-yn-1-yl)amino) butanoic acid] showed an IC50 in data set [1] (general formula IV compounds) of 15 nM. In other words, the double-digit nanomolar range.
The molecule `C#CCN(c1ccc(N(CC(=O)O)S(=O)(=O)c2ccc(OC)c(OC)c2)c2ccccc12)[C@@H](C)CC(=O)O` [DDO-1211, (S)-3-((4-((N-(Carboxymethyl)-3,4-dimethoxyphenyl)sulfonamido)naphthalen-1-yl)(prop-2-yn-1-yl)amino) butanoic acid] had an IC50 in data set [1] (setting [2]) of 59 nM.
Molecule `C#CCN(c1ccc(NS(=O)(=O)c2ccccc2)c2ccccc12)[C@@H](C)CC(=O)O` [DDO-1186, (S)-3-((4-(phenylsulfonamido)naphthalen-1-yl)(prop-2-yn-1-yl)amino) butanoic acid] had a half-maximal inhibitory concentration (IC50) in data set [1] (setting [4]) of 8000 nM.
Same read-out and setting: the same measure for `C#CCN(c1ccc(NS(=O)(=O)c2cccc(OC)c2)c2ccccc12)[C@@H](C)CC(=O)O` [DDO-1200, (S)-3-((4-((3-methoxyphenyl)sulfonamido)naphthalen-1-yl)(prop-2-yn-1-yl)amino) butanoic acid]: 240 nM; for `C#CCN(c1ccc(NS(=O)(=O)c2ccc(C)cc2C)c2ccccc12)[C@@H](C)CC(=O)O` [DDO-1204, (S)-3-((4-((2,4-dimethylphenyl)sulfonamido)naphthalen-1-yl) (prop-2-yn-1-yl)amino) butanoic acid]: 93 nM.
In data set [1] (setting [2]), `C#CCN(c1ccc(NS(=O)(=O)c2ccc(OC)c(C)c2)c2ccccc12)[C@@H](C)CC(=O)O` [DDO-1216, (S)-3-((4-((4-methoxy-3-methylphenyl)sulfonamido)naphthalen-1-yl) (prop-2-yn-1-yl)amino) butanoic acid] gave an IC50 of 72 nM.
As to `C#CCN(c1ccc(NS(=O)(=O)c2ccc(Cl)cc2)c2ccccc12)[C@@H](C)CC(=O)O` [DDO-1192, (S)-3-((4-((4-chlorophenyl)sulfonamido)naphthalen-1-yl)(prop-2-yn-1-yl)amino) butanoic acid], the IC50 in data set [1] (setting [4]) came out at 1700 nM. That is a single-digit micromolar value.
Molecule `C#CCN(c1ccc(N(CC(=O)O)S(=O)(=O)c2ccc3c(c2)CCO3)c2ccccc12)[C@@H](C)CC(=O)O` [DDO-1223, (S)-3-((4-((N-(Carboxymethyl)-2,3-dihydrobenzofuran)-5-sulfonamido)naphthalen-1-yl)(prop-2-yn-1-yl)amino) butanoic acid] had an IC50 in data set [1] (setting [2]) of 86 nM.
`COc1ccc(S(=O)(=O)Nc2ccc(N(Cc3ccccc3)[C@@H](C)CC(=O)O)c3ccccc23)cc1` [DDO-1160] came in with a 50% inhibitory concentration (IC50) in data set [1] (setting [3]) of 860 nM.
`C#CCN(c1ccc(N(CC(=O)O)S(=O)(=O)c2c(C)cc(OC)cc2C)c2ccccc12)[C@@H](C)CC(=O)O` [DDO-1221]: in the data set on HepG2-ARE-C8 cells, the “ARE luciferase reporter gene activity (fold induction), cell activity” value is reported as “does not have the optimal cell activity”. For the same molecule, in data set [1] (setting [2]), the IC50 was found to be 5.8 nM. Further, the “target activity in the FP assay” value in data set [1] (in words) was “optimal target activity”.

One may read the IC50 as the concentration that gives 50% inhibition. A high value points to weaker potency.
